Patent publication US6262064A, “Octahydrobenzo[f]quinoline-based receptor agonists and antagonists” (priority 1999, dated 2001)
Where two headings read alike, the source gives them in different places.

Legend:
[1] = system: non-habituated male Swiss-Webster mice; experiment: Locomotor dose-effect test; type: in vivo
Protocol: Compounds of this invention were tested to evaluate any depressant effect upon locomotor activity on non-habituated and cocaine-influenced mice. Locomotor activity was measured in photocell cages. A panel of infrared beams was located in the horizontal direction along all 4 sides of each activity cage. Horizontal photocell beam interruptions were recorded by a computer in 10 minute intervals.
Non-habituated male Swiss-Webster served as subjects in this experiment. The mice were injected via the intraperitoneal (IP) route with a methycellulose vehicle or a test compound, comprising trans-9 or cis-9, and placed singly in cages for 20 minutes. After this 20 minute period, mice were injected with saline IP, placed in individual photocell cages and testing for effects upon locomotor activity was begun. Eight mice were tested at each dose level. Experimental sessions were 60 minutes in duration with horizontal locomotor activity recorded in 10 minute intervals. Within each 10 minute interval, the data from all subjects are averaged.
The results of these tests were provided in FIGS. 1a, 1b, 2a and 2b, as well as in Table XI. […] Data were analyzed by a one-way ANOVA computed across doses using a long10 transformation of the horizontal activity counts. Comparisons between vehicle and each dose of the compounds tested were made by a priori contrasts. Doses of the compounds tested, which produced a statistically significant (p<0.05) decrease in locomotor activity relative to vehicle control, are denoted with an asterisk. […] The horizontal activity counts were regressed against the log10 dose of the test compound.

D4 (rat) receptor = biological target: T1, D4 (rat) receptor (Rattus norvegicus, UniProt P30729); experiment: D2:D3:D4 competition binding assay, D4 ([3H]-spiperone); details: in words, Example 26
T1 construct: expressed in transfected cells
T1 sequence (P30729 1-387): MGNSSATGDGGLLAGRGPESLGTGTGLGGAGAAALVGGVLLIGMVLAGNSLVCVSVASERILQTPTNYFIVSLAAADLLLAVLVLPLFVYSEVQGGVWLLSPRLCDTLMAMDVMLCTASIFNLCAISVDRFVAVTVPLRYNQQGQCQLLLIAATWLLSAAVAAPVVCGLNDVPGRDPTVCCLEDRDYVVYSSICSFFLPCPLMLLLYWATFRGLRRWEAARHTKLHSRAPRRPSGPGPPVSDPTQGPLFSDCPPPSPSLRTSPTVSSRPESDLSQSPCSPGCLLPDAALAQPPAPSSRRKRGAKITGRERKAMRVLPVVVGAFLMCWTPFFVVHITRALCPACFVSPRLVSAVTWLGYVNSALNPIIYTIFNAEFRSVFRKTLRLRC
Protocol: (§1) To determine the D2, D3 or D4 receptor selectivity, competition binding assays were performed using membranes from fibroblast cell lines transfected with D2444 (rat), D3 (human) or D4 (rat) receptors. All cell lines were maintained in Dulbecco's modified Eagle's media (DMEM) supplemented with 10 % fetal bovine serum at 37° C. with 5% CO2. Transfected cells were maintained in DMEM containing 300 μg/mL of the antibiotic G418 (Gibco).
Nuclei were removed by centrifugation for five minutes at 600 g at 4° C., membranes were pelleted for 25 minutes at 50,000 g. Membrane protein was resuspended in homogenization buffer (0.32M sucrose, 0.0025M Tris, pH 6.9 at 20° C.) and incubated at 37° C. for 15 minutes. Membrane protein was pelleted, resuspended in water and stored at -70° C.
The compositions were tested in varying concentrations between 1 nM and 100 μM. Non-specific binding was determined using 1 μM eticlopride.
After addition of all components, the samples were incubated for 15 minutes at 37° C., terminated with 50 mM Tris-HCl (pH 7.4 at 4° C.) and collected on glass-fiber filters on a Brandel cell harvester. […] Each composition was evaluated in duplicate experiments.

D2 receptor [2] = biological target: T2, D2 receptor (Sus scrofa, UniProt F1SM69); experiment: D2:D4 comparative binding assay, D2 (pig anterior pituitary)
T2 construct: pig anterior pituitary tissue; from tissue; host or cells: pig anterior pituitary
Protocol: (§2) To evaluate D2 versus D4 receptor selectivity, comparative binding assays were performed to compare the binding affinities of compositions of this invention for cloned D2 and D4 receptors.
(§3) The D2 assay was prepared from pig anterior pituitary tissue as described in Seeman et al., Molecular Pharmacology, 28:391 (1985). The D4 assay contained membranes prepared from COS-7 cells transfected with a 3.9 kb cDNA-gene fusion construct as described in H. H. M. Vantol, Nature, 350:610 (1991).
(§4) Binding assays were done using the methods described in by Seeman and Vantol. [^3 H]-spiperone (New England Nuclear, Boston, Mass.). The compositions were tested varying concentrations.
(§5) After addition of all components, the samples were incubated for 15 minutes at 37° C., terminated with 50 mM Tris-HCl (pH 7.4 at 20° C.) and collected on glass-fiber filters on a Brandel cell harvester. Radioactivity retained on the filters was counted on a Beckman LS 1701 scintillation counter and data were analyzed by non-linear least squares regression methods.

D2 receptor [3] = biological target: T3, D2 receptor (Rattus norvegicus, UniProt P61169); experiment: D2 receptor agonist evaluation (membrane binding with and without Gpp(NH)p)
T3 construct: expressed in transfected cells
Protocol: as §1
To determine whether or not compounds of this invention were D2 receptor agonists, a membrane binding assay, utilizing the D2 cell line described in Example 26, was performed in the presence and absence of the non-hydrolyzable guanine nucleotide (GTP analogue) Gpp(NH)p.

[4] = system: male Sprague-Dawley albino rats; experiment: Stereotypy evaluation for dopaminergic activity; type: in vivo; details: IP
Protocol: Young, adult, male Sprague-Dawley (Charles River) albino rats (200-250 g) served as subjects in this experiment. The rats were injected IP with each dose of (±)-trans-9 or (±)-cis-9. Six rats were tested at each dose. Experimental sessions were 60 minutes in duration. The tests were performed and rated in accordance with the method described in Campbell et al., Psychopharmacology, 88:158 (1986). Each rat was rated with a score of 0 to 3, where 0 represents no sterotypy.

D2 dopamine receptor = biological target: T4, D2 dopamine receptor (Rattus norvegicus, UniProt P61169); experiment: Dopamine D2 binding assay ([3H]Sulpiride); details: for dopamine receptor binding affinity / selectivity for the D2 over the D1 dopamine receptor: in words
T4 construct: rat striatal membranes; from tissue; host or cells: rat striatum membranes
Protocol: The final ligand concentration was 0.5 nM.

D4 receptor = biological target: T5, D4 receptor (Homo sapiens, UniProt P21917, DEL265-296); experiment: D2:D4 comparative binding assay, D4 (COS-7 cells)
T5 construct: expressed in transfected cells; host or cells: COS-7 cells
Protocol: as §2, §3, §4, §5

[5] = biological target: alpha2-adrenergic receptor; experiment: Alpha2-adrenergic (non-selective) binding assay ([3H]RX 781094); parameters: species or system rat; details: for Ki: Table III, rat cortical membranes, read-out: α2 receptor binding affinity Ki; for α2 receptor binding affinity: in words
[6] = biological target: alpha1-adrenergic receptor; details: for Ki: read-out: α1 receptor binding affinity Ki, Table III, rat forebrain membranes
Protocol: In these assays, the binding reaction was initiated by the addition of varying concentrations of the potential binding composition and a radioligand to an appropriate tissue. The assay was then incubated to allow binding. Binding was then terminated by dilution of the assay with a cold buffer, followed by rapid vacuum filtration onto Whatman GI/C filters that were presoaked in 0.1% polyethylene imine for at least 3 hours. Radioactivity trapped onto the filters was determined and compared to control values in order to ascertain any interactions of test compounds with the binding sites. Binding affinity analyses were performed by Novascreen, Division of the Adheron Corporation, Hanover, Md.
Incubation was conducted in 50 mM TRIS-HCl (pH 7.7) at 25° C. for 60 minutes. […] The final ligand concentration was 0.5 nm.

5HT2 serotonin receptor = biological target: T6, 5HT2 serotonin receptor (Rattus norvegicus, UniProt P14842); experiment: Serotonin (5HT2) binding assay ([3H]Ketanserin); details: 5-HT2 receptor binding affinity Ki
T6 construct: rat cortical membranes; from tissue; host or cells: rat cortex membranes
Protocol: The final ligand concentration was 1.0 nM.

5HT1A serotonin receptor = biological target: T7, 5HT1A serotonin receptor (Bos taurus, UniProt F6Q2H9); experiment: Serotonin (5HT1A) binding assay ([3H]-8-OH-DPAT); parameters: species or system bovine
T7 construct: bovine hippocampus; from tissue; host or cells: bovine hippocampus
T7 sequence (F6Q2H9 1-422): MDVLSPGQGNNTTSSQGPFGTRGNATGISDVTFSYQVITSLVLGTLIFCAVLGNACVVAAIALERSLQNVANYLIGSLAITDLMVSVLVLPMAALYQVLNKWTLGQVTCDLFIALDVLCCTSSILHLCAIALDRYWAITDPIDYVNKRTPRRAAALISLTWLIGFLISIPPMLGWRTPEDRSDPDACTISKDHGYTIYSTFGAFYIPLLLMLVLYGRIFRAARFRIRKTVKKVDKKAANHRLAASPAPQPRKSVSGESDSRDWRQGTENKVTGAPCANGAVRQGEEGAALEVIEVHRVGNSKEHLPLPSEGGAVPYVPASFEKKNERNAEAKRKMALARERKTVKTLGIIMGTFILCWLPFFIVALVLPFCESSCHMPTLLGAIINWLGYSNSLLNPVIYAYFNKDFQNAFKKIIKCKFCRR

5HT1 serotonin receptor = experiment: Serotonin (5HT1) binding assay
Protocol: In these assays, the binding reaction was initiated by the addition of varying concentrations of the potential binding composition and a radioligand to an appropriate tissue. The assay was then incubated to allow binding. Binding was then terminated by dilution of the assay with a cold buffer, followed by rapid vacuum filtration onto Whatman GI/C filters that were presoaked in 0.1% polyethylene imine for at least 3 hours. Radioactivity trapped onto the filters was determined and compared to control values in order to ascertain any interactions of test compounds with the binding sites.
Incubation was conducted in 50 mM TRIS-HCl (pH 7.4) at 45 minutes for 37° C. The radioligand used was [^3 H]Hydroxytryptamine binoxalate (15-30 Ci/mmol). The final ligand concentration was 3.0 nM.

D1 dopamine receptor = biological target: T8, D1 dopamine receptor (Rattus norvegicus, UniProt P18901); experiment: Dopamine D1 binding assay ([3H]SCH 23390); details: Table III; rat striatal membranes; read-out: D1 receptor binding affinity Ki
T8 construct: rat striatal membranes; from tissue; host or cells: rat striatum membranes
Protocol: The final radioligand concentration was 0.5 nM.

T3 sequence (P61169 whole entry): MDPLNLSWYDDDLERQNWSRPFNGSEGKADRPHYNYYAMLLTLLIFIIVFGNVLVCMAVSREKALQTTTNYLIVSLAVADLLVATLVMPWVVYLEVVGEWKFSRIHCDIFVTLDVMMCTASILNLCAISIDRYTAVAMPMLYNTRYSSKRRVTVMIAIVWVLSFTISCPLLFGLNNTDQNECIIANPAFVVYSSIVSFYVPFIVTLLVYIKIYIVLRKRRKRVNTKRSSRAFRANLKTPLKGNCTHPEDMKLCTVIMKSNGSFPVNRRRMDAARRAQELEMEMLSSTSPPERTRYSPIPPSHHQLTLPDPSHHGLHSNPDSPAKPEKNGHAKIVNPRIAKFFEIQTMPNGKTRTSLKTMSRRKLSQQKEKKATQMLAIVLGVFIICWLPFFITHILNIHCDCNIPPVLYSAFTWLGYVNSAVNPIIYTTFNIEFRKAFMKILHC
T4 sequence (P61169 whole entry): as above
T5 sequence (P21917 other isoform, or with tags, fused parts or gaps DEL265-296): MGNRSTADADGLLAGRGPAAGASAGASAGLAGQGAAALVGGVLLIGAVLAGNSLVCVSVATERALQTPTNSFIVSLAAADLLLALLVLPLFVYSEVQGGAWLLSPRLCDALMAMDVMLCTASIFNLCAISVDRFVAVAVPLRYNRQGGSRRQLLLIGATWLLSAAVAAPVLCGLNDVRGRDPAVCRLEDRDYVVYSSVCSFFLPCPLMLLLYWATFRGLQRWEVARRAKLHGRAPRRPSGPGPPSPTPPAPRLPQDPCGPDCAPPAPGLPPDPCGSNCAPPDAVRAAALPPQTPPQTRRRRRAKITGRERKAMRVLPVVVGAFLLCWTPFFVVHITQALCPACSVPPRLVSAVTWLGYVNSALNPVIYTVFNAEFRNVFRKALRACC
T6 sequence (P14842 whole entry): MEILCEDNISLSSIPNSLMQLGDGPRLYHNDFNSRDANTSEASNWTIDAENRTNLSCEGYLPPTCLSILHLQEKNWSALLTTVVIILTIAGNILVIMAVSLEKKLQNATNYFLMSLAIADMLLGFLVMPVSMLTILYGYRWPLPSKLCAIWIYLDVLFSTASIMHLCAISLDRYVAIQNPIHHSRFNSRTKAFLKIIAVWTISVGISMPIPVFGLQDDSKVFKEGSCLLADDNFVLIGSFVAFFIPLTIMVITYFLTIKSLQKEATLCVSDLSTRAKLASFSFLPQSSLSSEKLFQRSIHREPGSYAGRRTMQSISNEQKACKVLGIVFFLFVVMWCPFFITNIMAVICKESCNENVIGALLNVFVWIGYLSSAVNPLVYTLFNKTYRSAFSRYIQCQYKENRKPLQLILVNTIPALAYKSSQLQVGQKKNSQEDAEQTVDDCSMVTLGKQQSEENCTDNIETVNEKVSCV
T8 sequence (P18901 whole entry): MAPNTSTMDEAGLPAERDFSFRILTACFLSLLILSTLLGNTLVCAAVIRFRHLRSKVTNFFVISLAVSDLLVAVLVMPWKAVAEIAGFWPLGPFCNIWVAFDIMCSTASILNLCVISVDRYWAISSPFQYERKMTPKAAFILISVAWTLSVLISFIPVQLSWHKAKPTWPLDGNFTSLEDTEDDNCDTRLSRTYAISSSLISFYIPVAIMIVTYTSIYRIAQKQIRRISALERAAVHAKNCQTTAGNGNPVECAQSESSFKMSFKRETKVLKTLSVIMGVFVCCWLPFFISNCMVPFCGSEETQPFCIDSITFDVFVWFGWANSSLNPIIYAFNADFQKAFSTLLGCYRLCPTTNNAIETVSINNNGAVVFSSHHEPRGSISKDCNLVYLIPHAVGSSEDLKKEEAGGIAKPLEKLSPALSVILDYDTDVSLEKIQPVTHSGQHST
T2 sequence (F1SM69 1-443): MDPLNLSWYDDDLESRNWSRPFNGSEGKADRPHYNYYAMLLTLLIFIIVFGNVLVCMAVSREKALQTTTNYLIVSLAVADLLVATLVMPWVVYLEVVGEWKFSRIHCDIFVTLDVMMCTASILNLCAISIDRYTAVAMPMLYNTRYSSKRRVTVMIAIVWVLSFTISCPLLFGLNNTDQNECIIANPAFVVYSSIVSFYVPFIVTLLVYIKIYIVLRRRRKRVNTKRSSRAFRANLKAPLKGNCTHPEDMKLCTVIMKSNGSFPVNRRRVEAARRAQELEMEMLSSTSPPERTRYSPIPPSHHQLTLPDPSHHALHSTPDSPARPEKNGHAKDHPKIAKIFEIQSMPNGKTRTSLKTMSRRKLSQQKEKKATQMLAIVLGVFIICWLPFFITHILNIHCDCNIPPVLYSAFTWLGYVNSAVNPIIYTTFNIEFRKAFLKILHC

Oc1ccc2c(c1O)CC[C@@H]1[C@H]2CCCN1CCc1ccccc1 (relative stereo) [cis-9]
deaths ([1]; IP, 10 mg/kg): Two of eight mice died | decrease in locomotor activity, overall assessment ([1]; IP, in words): much weaker than expected when compared to its dopamine D2 receptor affinity | suppression of locomotor activity ([1]; IP, in words): dose-related suppression of locomotor activity of 10 mg/kg | ED50 ([1]; Mus musculus, read-out: ED50 (dose which produced 50% maximal depressant activity), IP, horizontal locomotor activity): 2.1 mg/kg | selectivity for the D4 receptor (D4 (rat) receptor): highly selective for the D4 receptor over the D2 or D3 receptors | Ki (D2 receptor [2]): 122 nM | Ratio of +:- Gpp(NH)p (D2 receptor [3]; Table XV): 1.84 | Ki (D2 receptor [3]; Table XV, with Gpp(NH)p, read-out: D2 receptor binding Ki with Gpp(NH)p): 872 ± 610 nM | Ki (D2 receptor [3]; Table XV, without Gpp(NH)p, read-out: D2 receptor binding Ki without Gpp(NH)p): 473 ± 313 nM | D2 agonist/antagonist assessment (D2 receptor [3]; in words): appear to be an antagonist | effect of GTP on D2 receptor binding (D2 receptor [3]; in words): the addition of GTP did not significantly affect receptor binding affinity | stereotypy score ([4]; 0.0001 mg/kg): 1.0 ± 0.4 | stereotypy score ([4]; 0.001 mg/kg): 0.7 ± 0.3 | stereotypy score ([4]; 0.003 mg/kg): 0.5 ± 0.2 | stereotypy score ([4]; 0.01 mg/kg): 0.0 | stereotypy score ([4]; 0.03 mg/kg): 0.0 | stereotypy score ([4]; 0.1 mg/kg): 0.0 | stereotypy score ([4]; 0.3 mg/kg): 0.0 | stereotypy score ([4]; 1.0 mg/kg): 0.0 | stereotypy score ([4]; 3.0 mg/kg): 0.0 | stereotypy score ([4]; 10.0 mg/kg): 0.0 | induction of stereotypy, dopamine agonism ([4]; in words): did not induce stereotypy and therefore is not a dopamine agonist | Ki (D2 dopamine receptor): 22 nM | dopamine receptor binding affinity (D2 dopamine receptor): good dopamine receptor binding affinities | selectivity for the D2 over the D1 dopamine receptor (D2 dopamine receptor): highly selective for the D2 dopamine receptor over the D1 dopamine receptor | Ki (D4 receptor): 8.9 nM | selectivity for the D4 receptor (D4 receptor; in words, Example 27): selective for the D4 receptor over the D2 or D3 receptors | Ki [5]: 27 nM | α2 receptor binding affinity [5]: high binding affinities for the α2 receptor | Ki [6]: 190 nM

Oc1cccc2c1CC[C@@H]1[C@@H]2CCCN1CCc1ccccc1 (single isomer, unassigned) [trans-(-)-25, trans-(-)-7-hydroxy-4-phenethyl-1,2,3,4a,5,6,10b-octahydrobenzo[f]quinoline]
Ki (5HT2 serotonin receptor): 410 nM | Ki (5HT1A serotonin receptor; 5-HT1A receptor binding affinity Ki, Table III, bovine hippocampus): 11 nM | 5HT1A serotonin receptor binding affinity (5HT1A serotonin receptor; in words): high binding affinities for the 5HT1A serotonin receptor | Ki (D2 dopamine receptor): 0.9 nM | dopamine receptor binding affinity (D2 dopamine receptor): good dopamine receptor binding affinities | selectivity for the D2 over the D1 dopamine receptor (D2 dopamine receptor): highly selective for the D2 dopamine receptor over the D1 dopamine receptor | 5HT1 serotonin receptor binding affinity (5HT1 serotonin receptor; in words): high binding affinity for the 5HT1 serotonin receptor | Ki (5HT1 serotonin receptor; read-out: 5-HT1 receptor binding affinity Ki, Table III, rat cortical membranes): 240 nM | Ki [5]: 2.1 nM | α2 receptor binding affinity [5]: high binding affinities for the α2 receptor | Ki (D1 dopamine receptor): 3600 nM | α1 receptor binding affinity ([6]; in words): high binding affinities for the α1 receptor | Ki [6]: 4.8 nM
